The values that follow come from patent publication US8791118B2, “Pyridopyrazines as highly selective ras-Raf-Mek-Erk signal transduction pathway inhibitors” (Aeterna Zentaris GmbH, priority 2011, dated 2014).

Where a name gives a salt, the structure may show the parent alone.

Chain of Erk2 (P28482 2-360 limits assumed): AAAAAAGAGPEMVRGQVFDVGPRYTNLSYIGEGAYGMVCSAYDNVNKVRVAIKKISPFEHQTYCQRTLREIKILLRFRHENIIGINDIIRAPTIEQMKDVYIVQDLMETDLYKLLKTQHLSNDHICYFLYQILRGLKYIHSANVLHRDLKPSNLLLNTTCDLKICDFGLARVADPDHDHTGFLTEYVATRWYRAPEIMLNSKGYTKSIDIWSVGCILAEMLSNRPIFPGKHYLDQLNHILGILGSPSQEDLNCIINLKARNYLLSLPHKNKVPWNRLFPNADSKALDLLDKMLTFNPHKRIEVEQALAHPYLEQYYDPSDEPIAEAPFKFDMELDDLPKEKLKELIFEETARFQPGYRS

The first series concerns the target Erk2 (Homo sapiens, UniProt P28482). Put plainly: Erk2 alpha kinase assay (cell-free, ALPHA technology). The settings on record: 10 μM ATP. The series is classed as biochemical. As to the method:
The inhibitory effect of the compounds according to the invention was tested on various serine/threonine, tyrosine and lipid kinases in enzymatic assays. Recombinant human kinases such as, for example, Erk2, were used in this case, partly as full-length kinases, partly as shortened fragments, but at least consisting of the functional kinase domains. The commercial kinase proteins (Proqinase, Upstate) were used as recombinant fusion proteins with GST (glutathion-S-transferase) or His-Tag. Depending on the type of substrate, the various kinase reactions were quantified by means of suitable ALPHA™ beads (Perkin-Elmer). The substance testing is described in detail hereinafter for the Erk assay. […] a) MAPK-ALPHAs (e.g. […] The fluorescence was detected the following morning in a Envision plate reader (Perkin-Elmer). The %-inhibition values per substance concentration were calculated by means of the following formula from the raw data determined in the Envision plate reader[…]: Eight determinations were made for each control and two for the substance samples. […] The IC50 values were determined using GraphPadPrism.
Turning to `O=C(NCCCCc1ccccc1)Nc1ccc2ncc(-c3cnn(CCN4CCOCC4)c3)nc2n1` [Compound 127, 1-{3-[1-(2-Morpholin-4-yl-ethyl)-1H-pyrazol-4-yl]-pyrido[2,3-b]pyrazin-6-yl}-3-(4-phenyl-butyl)-urea], the midpoint of inhibition, the IC50, lay at 5 nM. Regarding `O=C(NCCCCc1ccccc1)Nc1ccc2ncc(-c3cnn(CCCO)c3)nc2n1` [Compound 162, 1-{3-[1-(3-Hydroxy-propyl)-1H-pyrazol-4-yl]-pyrido[2,3-b]pyrazin-6-yl}-3-(4-phenyl-butyl)-urea], the midpoint of inhibition, the IC50, lay at 2 nM. As to `O=C(NCCCCc1ccccc1)Nc1ccc2ncc(-c3ccc(O)c(F)c3)nc2n1` [Compound 174, 1-[3-(3-Fluoro-4-hydroxy-phenyl)-pyrido[2,3-b]-pyrazin-6-yl]-3-(4-phenyl-butyl)-urea], the IC50 was determined as 6 nM. The molecule `O=C(NCCCCc1ccccc1)Nc1ccc2ncc(-c3cccc(CO)c3)nc2n1` [Compound 175, 1-[3-(3-Hydroxymethyl-phenyl)-pyrido[2,3-b]pyrazin-6-yl]-3-(4-phenyl-butyl)-urea] registered an IC50 of 6 nM. Still for that read-out and setting: the value for `C[C@H](CCCc1ccccc1)NC(=O)Nc1ccc2ncc(-c3cnn(C)c3)nc2n1` [Compound 180, 1-((R)-1-Methyl-4-phenyl-butyl)-3-[3-(1-methyl-1H-pyrazol-4-yl)-pyrido[2,3-b]pyrazin-6-yl]urea] was 6 nM; that for `C[C@H](CCCc1ccccc1)NC(=O)Nc1ccc2ncc(-c3cccc(CO)c3)nc2n1` [Compound 181, 1-[3-(3-Hydroxymethyl-phenyl)-pyrido[2,3-b]pyrazin-6-yl]-3-((R)-1-methyl-4-phenyl-butyl)-urea] was 6 nM; that for `O=C(NCCCCc1ccccc1)Nc1ccc2ncc(-c3cnn(CCO)c3)nc2n1` [Compound 189, 1-{3-[1-(2-Hydroxy-ethyl)-1H-pyrazol-4-yl]-pyrido[2,3-b]pyrazin-6-yl}-3-(4-phenyl-butyl)-urea] was 4 nM. Still for that read-out and setting: then `COc1cc(-c2cnc3ccc(NC(=O)NCCCCc4ccccc4)nc3n2)ccc1C(=O)O` [Compound 194, 2-Methoxy-4-{6-[3-(4-phenyl-butyl)-ureido]-pyrido[2,3-b]pyrazin-3-yl}-benzoic acid], with 1 nM; and `C[C@H](CCCc1ccccc1)NC(=O)Nc1ccc2ncc(-c3ccc(C[C@H](N)C(=O)O)cc3)nc2n1` [Compound 195, (S)-2-Amino-3-(4-{6-[3-((R)-1-methyl-4-phenyl-butyl)-ureido]-pyrido[2,3-b]pyrazin-3-yl}-phenyl)-propionic acid; hydrochloride], with 1 nM.

In turn, `O=C(NCCCCc1ccccc1)Nc1ccc2ncc(-c3ccc(OCCN4CCOCC4)cc3)nc2n1` [Compound 202, 1-{3-[4-(2-Morpholin-4-yl-ethoxy)-phenyl]-pyrido[2,3-b]pyrazin-6-yl}-3-(4-phenyl-butyl)-urea] showed a half-inhibitory concentration (IC50) of 41 nM.

With `COCc1cccc(-c2cnc3ccc(NC(=O)N[C@H](C)CCCc4ccccc4)nc3n2)c1` [Compound 203, 1-[3-(3-Methoxymethyl-phenyl)-pyrido[2,3-b]pyrazin-6-yl]-3-((R)-1-methyl-4-phenyl-butyl)-urea], the IC50 came out at 24 nM.

Test system in another series: not given
Assay: not given
Conditions: not given
For the molecule `CCOC(=O)Oc1ccc(-c2cnc3ccc(NC(=O)NCCCCc4ccccc4)nc3n2)cc1` [Compound 132, Carbonic acid ethyl ester 4-{6-[3-(4-phenyl-butyl)-ureido]-pyrido[2,3-b]pyrazin-3-yl}-phenyl ester], the melting point came to 212 °C. Same read-out and setting: then `O=C(NCCCCc1ccccc1)Nc1ccc2ncc(-c3ccccc3O)nc2n1` [Compound 133, 1-[3-(2-Hydroxy-phenyl)-pyrido[2,3-b]pyrazin-6-yl]-3-(4-phenyl-butyl)-urea], with 247 to 248 °C; and `CC(C)(C)C(=O)Oc1ccc(-c2cnc3ccc(NC(=O)NCCCCc4ccccc4)nc3n2)cc1` [Compound 135, 2,2-Dimethyl-propionic acid 4-{6-[3-(4-phenyl-butyl)-ureido]-pyrido[2,3-b]pyrazin-3-yl}-phenyl ester], with 225 °C.

As to `CSc1ccc(-c2cnc3ccc(NC(=O)NCCCCc4ccccc4)nc3n2)cc1` [Compound 137, 1-[3-(4-Methylsulfanyl-phenyl)-pyrido[2,3-b]pyrazin-6-yl]-3-(4-phenyl-butyl)-urea], the melting point was in the range of 227 to 230 °C. `N#Cc1cccc(-c2cnc3ccc(NC(=O)NCCCCc4ccccc4)nc3n2)c1` [Compound 138, 1-[3-(3-Cyano-phenyl)-pyrido[2,3-b]pyrazin-6-yl]-3-(4-phenyl-butyl)-urea] had a melting point of 237 to 240 °C. The same measure, in the same setting: the value for `COc1cc(Nc2cnc3ccc(NC(=O)NCCCCc4ccccc4)nc3n2)cc(OC)c1OC` [Compound 139, 1-(4-Phenyl-butyl)-3-[3-(3,4,5-trimethoxy-phenylamino)-pyrido[2,3-b]pyrazin-6-yl]-urea] was 223 to 225 °C; that for `COc1cc(Nc2cnc3ccc(NC(=O)NCCCCc4ccccc4)nc3n2)cc(O)c1OC` [Compound 141, 1-[3-(3-Hydroxy-4,5-dimethoxy-phenylamino)-pyrido[2,3-b]pyrazin-6-yl]-3-(4-phenyl-butyl)-urea] was 136 to 139 °C; that for `O=C(NCCCCc1ccccc1)Nc1ccc2ncc(-c3ccc(F)cc3O)nc2n1` [Compound 144, 1-[3-(4-Fluoro-2-hydroxy-phenyl)-pyrido[2,3-b]pyrazin-6-yl]-3-(4-phenyl-butyl)-urea] was 248 to 249 °C. `COc1ccc(-c2cnc3ccc(NC(=O)NCCCCc4ccccc4)nc3n2)cc1S(=O)(=O)N1CCOCC1` [Compound 145, 1-{3-[4-Methoxy-3-(morpholine-4-sulfonyl)-phenyl]-pyrido[2,3-b]pyrazin-6-yl}-3-(4-phenyl-butyl)-urea] showed a melting point of 256 to 258 °C. Still for that read-out and setting: then `COc1ncccc1-c1cnc2ccc(NC(=O)NCCCCc3ccccc3)nc2n1` [Compound 146, 1-[3-(2-Methoxy-pyridin-3-yl)-pyrido[2,3-b]pyrazin-6-yl]-3-(4-phenyl-butyl)-urea], with 194 to 197 °C; and `C[C@H](CCCc1ccccc1)NC(=O)Nc1ccc2ncc(-c3ccc(O)cc3)nc2n1` [Compound 147, 1-[3-(4-Hydroxy-phenyl)-pyrido[2,3-b]pyrazin-6-yl]-3-((R)-1-methyl-4-phenyl-butyl)-urea], with 226 to 229 °C. On the same count and under the same terms, the value for `COc1ccc(-c2cnc3ccc(NC(=O)N[C@H](C)CCCc4ccccc4)nc3n2)cc1O` [Compound 148, 1-[3-(3-Hydroxy-4-methoxy-phenyl)-pyrido[2,3-b]pyrazin-6-yl]-3-((R)-1-methyl-4-phenyl-butyl)-urea] was 196 to 198 °C; that for `C[C@H](CCCc1ccccc1)NC(=O)Nc1ccc2ncc(-c3ccoc3)nc2n1` [Compound 149, 1-(3-Furan-3-yl-pyrido[2,3-b]pyrazin-6-yl)-3-((R)-1-methyl-4-phenyl-butyl)-urea] was 218 to 220 °C; that for `C[C@H](CCCc1ccccc1)NC(=O)Nc1ccc2ncc(-c3cccnc3)nc2n1` [Compound 150, 1-((R)-1-Methyl-4-phenyl-butyl)-3-(3-pyridin-3-yl-pyrido[2,3-b]pyrazin-6-yl)-urea] was 218 to 220 °C. `COc1ccc(-c2cnc3ccc(NC(=O)NCCCCc4ccccc4)nc3n2)cc1O` [Compound 151, 1-[3-(3-Hydroxy-4-methoxy-phenyl)-pyrido[2,3-b]pyrazin-6-yl]-3-(4-phenyl-butyl)-urea] yielded a melting point of 230 to 232 °C. The molecule `O=C(NCCCCc1ccccc1)Nc1ccc2ncc(-c3ccoc3)nc2n1` [Compound 152, 1-(3-Furan-3-yl-pyrido[2,3-b]pyrazin-6-yl)-3-(4-phenyl-butyl)-urea] showed a melting point of 212 to 216 °C. As to `C[C@H](CCCc1ccccc1)NC(=O)Nc1ccc2ncc(N3CCN(C)CC3)nc2n1` [Compound 153, 1-((R)-1-Methyl-4-phenyl-butyl)-3-[3-(4-methyl-piperazin-1-yl)-pyrido[2,3-b]pyrazin-6-yl]-urea], the melting point is 172 to 175 °C. For `C[C@H](CCCc1ccccc1)NC(=O)Nc1ccc2ncc(N3CCCCC3)nc2n1` [Compound 154, 1-((R)-1-Methyl-4-phenyl-butyl)-3-(3-piperidin-1-yl-pyrido[2,3-b]pyrazin-6-yl)-urea], the melting point lay in the range of 171 to 174 °C. On the same count and under the same terms, then `O=C(NCCCCc1ccccc1)Nc1ccc2ncc(-c3ccc(CO)cc3)nc2n1` [Compound 182, 1-[3-(4-Hydroxymethyl-phenyl)-pyrido[2,3-b]pyrazin-6-yl]-3-(4-phenyl-butyl)-urea], with 213 to 215 °C; and `O=C(NCCCCc1ccccc1)Nc1ccc2ncc(-c3ccncc3)nc2n1` [Compound 184, 1-(4-Phenyl-butyl)-3-(3-pyridin-4-yl-pyrido[2,3-b]pyrazin-6-yl)-urea], with 219 to 222 °C; and `C[C@H](CCCc1ccccc1)NC(=O)Nc1ccc2ncc(-c3ccc(O)c(F)c3)nc2n1` [Compound 185, 1-[3-(3-Fluoro-4-hydroxy-phenyl)-pyrido[2,3-b]pyrazin-6-yl]-3-((R)-1-methyl-4-phenyl-butyl)-urea], with 220 to 222 °C. Molecule `O=C(NCCCCc1ccccc1)Nc1ccc2ncc(-c3ccc(O)c(Cl)c3)nc2n1` [Compound 186, 1-[3-(3-Chloro-4-hydroxy-phenyl)-pyrido[2,3-b]pyrazin-6-yl]-3-(4-phenyl-butyl)-urea] had a melting point of 241 to 243 °C.

What is called IC50 is the midpoint of a concentration-inhibition curve. Read a low IC50 as greater potency. By melting point is commonly meant the temperature of the solid-liquid transition.
